Measurements as given in US20230226135A9, “ACETYLCHOLINE MODULATION OF IMMUNE FUNCTION” (BCell Solutions, Inc., priority 2019, published 2023).
Entries after “also recorded” stand apart in the source; their conditions may differ.

Experiments:
[1] = Toxicity evaluation in CFA/Peptide/MLA study (survival, body weight change, spleen weight); format: in vivo, mice
Protocol: SUMMARY: A study was conducted to evaluate a potential alpha7 nAChR anti-inflammatory mechanism of the MKR-4 peptide, using the alpha7 nAChR antagonist methyllycaconitine (MLA). After enrollment, animals in Groups 2-4 were sensitized ID at the base of the tail with 0.1 mL FCA on Day 1. On Days 2, 3, 5 & 7 Groups were then dosed intraperitoneally (IP) with either: peptide and MLA in combination (2 mg/kg and 6 mg/kg, respectively); peptide (2 mg/kg) and MLA vehicle (saline) in combination; or peptide vehicle (saline) and MLA vehicle (saline). Animals were dosed once on Study Day 2 (MLA or MLA vehicle), and Days 3, 5 & 7 (Peptide or Peptide vehicle, MLA or MLA vehicle) as described in Table 2 below. Body weights were recorded on Study Days 0 & 8. Mice were euthanized for necropsy on Study Day 8, and serum and whole spleens were collected from all animals and sent to the sponsor for internal FACS analysis. Toxicity and Peptide mechanistic evaluation was based on absolute body weight change, spleen weights and sponsor FACS analysis (not included in report). […]
Statistical Analysis: Data for each animal were entered into Microsoft Excel and means and standard errors for each group were calculated. Test groups were compared to vehicle controls using a one-way analysis of variance (1-way ANOVA) with a Dunnett's post-hoc analysis for measured (parametric) data. […]

IL17a = assay: Preeclampsia model in pregnant mice (TLR agonists), IL17; format: in vivo; conditions: PolyI:C or R837 induced; CAP i.p. (2 mg/kg, gestational day 13 elsewhere in the source)
Protocol: FIG. 9. CAP reduces IL-17 production in a model of preeclampsia. Pregnant mice were treated with the TLR3 or […] agonists to induce symptoms of preeclampsia, followed by CAP treatment.
In a separate study, preeclampsia was induced in pregnant mice by injection of either the toll-like receptor 3 (TLR3) agonist, PolyI:C, or with the toll-like receptor 8 ([…]) agonist R837. […] It is pertinent to note that this power issue has been corrected.
Preeclampsia, a disease suffered by pregnant woman that is characterized by high blood pressure and signs of damage to other organ systems, most often the liver and kidneys, is often accompanied by inflammation. […] Preeclampsia is also associated with an elevated TH17 response, including elevated IL17a, and elevated IL17a is associated with human and experimental hypertension and poor perinatal outcomes. […] Therefore, the anti-inflammatory effects of CAP were associated with improved outcomes in this model.

CLIP+ B cells = assay: CFA-induced arthritis model, CAP depletion of B cells with or without α7nAChR antagonist; format: in vivo, mice
Protocol: FIGS. 11A-11B. […] In this study, CAP was administered at 3 days after CFA, then once daily every 3 days, until day 10 after CFA.
The next series of experiments are focused on the effects of CAP on splenic immune cells. […] As part of this experiment, the mice were co-treated with CAP and the alpha-7 nicotinic acetylcholine receptor (α7nAChR) antagonist, methyllycaconitine (MCA).

[2] = LPS model of sepsis, autoregulation of arterial pressure / afferent arteriolar autoregulatory behavior; format: in vivo; conditions: LPS treated rats, CAP treatment
Protocol: FIGS. 16A-16B. Treatment with CAP restores afferent arteriolar autoregulatory behavior in chronic LPS (0.1 mg/kg/day) treated kidneys. Each data point represents the mean±SE. * P<0.05 vs. control diameter in the same group. ‡ P<0.05 vs. control for the same perfusion pressure. # P<0.05 vs. CAP for the same perfusion pressure.
Sepsis is a potentially life-threatening condition, is caused by excessive inflammation resulting from the body trying to fend off infection. […] LPS treatment (0.84 mg/kg) of rats is used as a model of sepsis and results in loss of arterial pressure that is inflammatory and mimics loss of autoregulation in sepsis. We discovered that autoregulation of arterial pressure can be restored with CAP treatment (FIG. 16), further supporting its use to treat infectious disease associated with sepsis.

Sequence: FRIMAVLAS [CAP, α7nAChR agonist]
- survival to study termination ([1]; Peptide 2 mg/kg IP Days 3, 5, 7, with or without MLA): All mice survived
- group body weight change differences and spleen weight differences ([1]; Peptide 2 mg/kg IP, with or without MLA 6 mg/kg, CFA mice): none of the group body weight change differences or spleen weight differences were significant
- elevated IL17 (IL17a) (IL17a): significantly reduced
- CFA-induced B cell expansion (CLIP+ B cells; 3x CAP treatment): reversed
- number of CLIP+ B cells (pro-inflammatory B cell populations) (CLIP+ B cells; CAP from 3 days after CFA, once every 3 days until day 10): significantly reduced; also recorded: selectively depletes
- autoregulation of arterial pressure (afferent arteriolar autoregulatory behavior) [2]: restores
